Patent US5916785A, “Process of oxidizing alcohols or carboxylic acids with alcohol/aldehyde dehydrogenase from gluconobacter” (Roche Vitamins Inc., priority 1992, dated 1999)

Experiments:
AADH [1] = assay: Measurement of the Km (Michaelis constant) values, DCIP/PMS enzyme assay; format: biochemical, Gluconobacter oxydans DSM No. 4025; settings: mixture of DCIP and PMS as electron acceptors; 25° C., pH 8.0; read-out: apparent Michaelis constant (Km)
AADH [2] = assay: Effect of metal ions on the enzyme activity; format: biochemical, Gluconobacter oxydans DSM No. 4025; settings: standard DCIP/PMS assay
Source text: Using the assay procedure described under section 1), the effect of various metal ions on the enzyme activity was examined. […] The others affected the enzyme activity strongly or moderately.

AADH [3] = assay: Effect of inhibitors on the enzyme activity; format: biochemical, Gluconobacter oxydans DSM No. 4025; settings: standard DCIP/PMS assay
AADH [4] = settings: substrate used instead of L-sorbose
Protocol: The enzyme assay was performed at 25° C. by measuring the decrease of absorbance at 600 nm of DCIP with a spectrophotometer (UVIKON 810, Kontron K.K.). One unit of the enzyme activity was defined as the amount of the enzyme which catalyzed the reduction of 1 μmole of DCIP per minute. The extinction coefficient of DCIP at pH 8.0 was taken as 15 mMol^-1. The standard reaction mixture (1.0 ml) contained 0.1 mMol DCIP, 1 mMol PMS, 125 mMol L-sorbose, 50 mMol Tris-malate-NaOH buffer (pH 8.0), and 3-8 μl of the enzyme solution. A reference cuvette contained all the above components except the substrate.
The substrate specificity of AADH was determined using the same enzyme assay method as described under section 1) above, except that various further substrates were used instead of L-sorbose.

effect of metal ions on the AADH enzyme activity (AADH [2])	Structure (SMILES)	also measured
	CCCO [1-propanol]	Km (AADH [1]): 2000 µM
did not affect	[Ca+2] [Ca^2+]	
strong inhibitors	[Cu+2] [Cu^2+]	
	O=C(O)CN(CCN(CC(=O)O)CC(=O)O)CC(=O)O [EDTA, Ethylenediamine tetraacetic acid]	effect of inhibitors on the AADH enzyme activity (AADH [3]): strongly inhibited
	O=C(O)CN(CCOCCOCCN(CC(=O)O)CC(=O)O)CC(=O)O [EGTA, ethylene glycol bis(beta-aminoethylether)-N,N,N',N'-tetraacetic acid]	effect of inhibitors on the AADH enzyme activity (AADH [3]): strongly inhibited
strong inhibitors	[Fe+3] [Fe^3+]	
did not affect	[Mg+2] [Mg^2+]	
strong inhibitors	[Mn+2] [Mn^2+]	
	CCO [ethanol]	oxidation as substrate by AADH (AADH [4]): good substrate
	CO [methanol]	oxidation as substrate by AADH (AADH [4]): hardly oxidizes
